Reference: patent US20240060999A1, “BLOOD COAGULATION INSPECTION METHOD” (FUJIMORI KOGYO CO., LTD, priority 2020, published 2024)

Experiments:
whole blood [1] = experiment: ROTEM whole blood coagulation with rabbit brain-derived tissue thromboplastin (TP) + Ca 12 mM (CTI 20 μg/mL, PKSI-527 40 μM where stated); type: cell-based; settings: for prolongation of blood coagulation by addition of rTM: Ex5-8, TP 0.9 μg/mL+Startem, FRAGMIN 0.2 U/mL or ARIXTRA 0.5 μg/mL instead of heparan sulfate, rTM 20 or 30 nM
whole blood [2] = experiment: ROTEM whole blood coagulation with dialyzed Dade Innovin (recombinant tissue factor) 0.569 μg/mL + Ca 12 mM + CTI 20 μg/mL + PKSI-527 40 μM; type: cell-based; settings: Ex28; for CT (clotting time): Innovin 0.569 μg/mL+Ca+CTI+PKSI-527, ARIXTRA 0.5 ug/mL
Procedure: ROTEM was used to analyze blood coagulation.
Blood was collected using a blood collection tube containing 3.2% sodium citrate manufactured by Terumo Corporation.
Blood coagulation was analyzed in the case of having added 4% (final concentration 0.569 μg/mL) of Dade Innovin (recombinant tissue factor: Sysmex Corporation) having being diluted by 50 times after dialysis, calcium chloride (Ca; final concentration 12 mM), heparan sulfate (final concentration 0 or 2 μg/mL), CTI (final concentration 20 μg/mL), PKSI-527 (final concentration 40 μM) without and with a soluble thrombomodulin (rTM: final concentration 30 nM) further having been added, as well as with an APC inhibitory aptamer (HS02-44G; final concentration 1 μM) in addition to 30 nM of soluble thrombomodulin.
Blood coagulation was analyzed in the case of having added 4% (final concentration 0.569 μg/mL) of 50-fold diluted Dade Innovin (recombinant tissue factor: Sysmex Corporation) after dialysis, calcium chloride (Ca; final concentration 12 mM), low molecular weight heparan (trade name FRAGMIN; Pfizer) (final concentration 0 or 0.2 U/mL), CTI (final concentration 20 μg/mL), and PKSI-527 (final concentration 40 μM) with and without a soluble thrombomodulin (rTM; final concentration 30 nM) further having been added, as well as with an APC inhibitory aptamer (HS02-44G; final concentration 1 μM) in addition to 30 nM soluble thrombomodulin.
ROTEM was used to analyze coagulation.
Blood coagulation was analyzed in the case of having added 4% (final concentration 0.569 μg/mL) of 50-fold diluted Dade Innovin (recombinant tissue factor: Sysmex Corporation) after dialysis, calcium chloride (Ca; final concentration 12 mM), ARIXTRA (final concentration 0 or […]), CTI (final concentration 20 μg/mL), and PKSI-527 (final concentration 40 μM), without and with thrombomodulin (rTM; final concentration 30 nM) further having been added, as well as with an APC inhibitory aptamer (HS02-44G; final concentration 1 μM) in addition to soluble thrombomodulin 30 nM.

[3] = unfractionated heparin 0.1 U/mL
[4] = Ex20, TP 16.6 μg/mL+Ca+CTI+PKSI-527, ARIXTRA 0.5 μg/mL, no rTM
[5] = Ex20, TP 16.6 μg/mL+Ca+CTI+PKSI-527, ARIXTRA 0.5 μg/mL, rTM 100 nM
[6] = Ex20, TP 16.6 μg/mL+Ca+CTI+PKSI-527, ARIXTRA 2.0 μg/mL, no rTM
[7] = Ex20, TP 16.6 μg/mL+Ca+CTI+PKSI-527, ARIXTRA 2.0 μg/mL, rTM 100 nM
[8] = Ex20, TP 16.6 μg/mL+Ca+CTI+PKSI-527, ARIXTRA 3.0 μg/mL, no rTM
[9] = Ex20, TP 16.6 μg/mL+Ca+CTI+PKSI-527, ARIXTRA 3.0 μg/mL, rTM 100 nM
[10] = Ex20, TP 16.6 μg/mL+Ca+CTI+PKSI-527, ARIXTRA 4.0 μg/mL, no rTM
[11] = Ex20, TP 16.6 μg/mL+Ca+CTI+PKSI-527, ARIXTRA 4.0 μg/mL, rTM 100 nM
[12] = Ex20, TP 16.6 μg/mL+Ca+CTI+PKSI-527, ARIXTRA 5.0 μg/mL, no rTM
[13] = Ex20, TP 16.6 μg/mL+Ca+CTI+PKSI-527, ARIXTRA 5.0 μg/mL, rTM 100 nM
[14] = Ex21, TP 0.64 μg/mL+Ca+CTI+PKSI-527, ARIXTRA 0.5 μg/mL, no rTM
[15] = Ex21, TP 0.64 μg/mL+Ca+CTI+PKSI-527, ARIXTRA 0.5 μg/mL, rTM 30 nM
[16] = Ex22, TP 0.055 μg/mL+Ca+CTI+PKSI-527, ARIXTRA 0.05 μg/mL, no rTM
[17] = Ex22, TP 0.055 μg/mL+Ca+CTI+PKSI-527, ARIXTRA 0.05 μg/mL, rTM 20 nM
[18] = Ex22, TP 0.055 μg/mL+Ca+CTI+PKSI-527, ARIXTRA 0.20 μg/mL, no rTM
[19] = Ex22, TP 0.055 μg/mL+Ca+CTI+PKSI-527, ARIXTRA 0.20 μg/mL, rTM 20 nM
[20] = Ex19, TP 16.6 μg/mL+Ca+CTI+PKSI-527, unfractionated heparin 0.1 U/mL, no rTM
[21] = Ex19, TP 16.6 μg/mL+Ca+CTI+PKSI-527, unfractionated heparin 0.1 U/mL, rTM 100 nM
[22] = Ex19, TP 16.6 μg/mL+Ca+CTI+PKSI-527, unfractionated heparin 0.2 U/mL, no rTM
[23] = Ex19, TP 16.6 μg/mL+Ca+CTI+PKSI-527, unfractionated heparin 0.2 U/mL, rTM 100 nM
[24] = Ex19, TP 16.6 μg/mL+Ca+CTI+PKSI-527, unfractionated heparin 0.3 U/mL, no rTM
[25] = Ex19, TP 16.6 μg/mL+Ca+CTI+PKSI-527, unfractionated heparin 0.3 U/mL, rTM 100 nM

CO[C@H]1O[C@H](COS(=O)(=O)O)[C@@H](O[C@@H]2O[C@@H](C(=O)O)[C@@H](O[C@H]3O[C@H](COS(=O)(=O)O)[C@@H](O[C@@H]4O[C@H](C(=O)O)[C@@H](O[C@H]5O[C@H](COS(=O)(=O)O)[C@@H](O)[C@H](O)[C@H]5NS(=O)(=O)O)[C@H](O)[C@H]4O)[C@H](OS(=O)(=O)O)[C@H]3NS(=O)(=O)O)[C@H](O)[C@H]2OS(=O)(=O)O)[C@H](O)[C@H]1NS(=O)(=O)O [ARIXTRA, fondaparinux sodium]
prolongation of blood coagulation by addition of rTM (whole blood [1]; [3]): markedly prolonged
CT values (whole blood [1]; Ex20, TP 16.6 μg/mL+Ca+CTI+PKSI-527, ARIXTRA 0, 0.5 μg/mL, no rTM): < 1 min
CFT (clot formation time) (whole blood [1]; [4]): 86 s
CT (clotting time) (whole blood [1]; [4]): 52 s
CFT (clot formation time) (whole blood [1]; [5]): 69 s
CT (clotting time) (whole blood [1]; [5]): 68 s
CFT (clot formation time) (whole blood [1]; [6]): 64.0 s
CT (clotting time) (whole blood [1]; [6]): 64 s
CFT (clot formation time) (whole blood [1]; [7]): 61 s
CT (clotting time) (whole blood [1]; [7]): 96 s
CFT (clot formation time) (whole blood [1]; [8]): 78.0 s
CT (clotting time) (whole blood [1]; [8]): 72 s
CFT (clot formation time) (whole blood [1]; [9]): 68 s
CT (clotting time) (whole blood [1]; [9]): 112 s
CFT (clot formation time) (whole blood [1]; [10]): 70.0 s
CT (clotting time) (whole blood [1]; [10]): 75 s
CFT (clot formation time) (whole blood [1]; [11]): 77 s
CT (clotting time) (whole blood [1]; [11]): 118 s
CFT (clot formation time) (whole blood [1]; [12]): 77.0 s
CT (clotting time) (whole blood [1]; [12]): 78 s
CFT (clot formation time) (whole blood [1]; [13]): 105 s
CT (clotting time) (whole blood [1]; [13]): 114 s
CFT (clot formation time) (whole blood [1]; [14]): 74 s
CT (clotting time) (whole blood [1]; [14]): 294 s
CFT (clot formation time) (whole blood [1]; [15]): 794 s
CT (clotting time) (whole blood [1]; [15]): 581 s
CFT (clot formation time) (whole blood [1]; [16]): 145 s
CT (clotting time) (whole blood [1]; [16]): 619 s
CFT (clot formation time) (whole blood [1]; [17]): 403 s
CT (clotting time) (whole blood [1]; [17]): 1074 s
CFT (clot formation time) (whole blood [1]; [18]): 232 s
CT (clotting time) (whole blood [1]; [18]): 799 s
blood clotting time (whole blood [1]; Ex22, TP 0.055 μg/mL+Ca+CTI+PKSI-527, ARIXTRA 0.2 μg/mL, rTM 20 nM): ≥ 1 h
CFT (clot formation time) (whole blood [1]; [19]): No CFT
CT (clotting time) (whole blood [1]; [19]): No CT
CT (clotting time) (whole blood [2]; no rTM): 466 s
CT (clotting time) (whole blood [2]; rTM 30 nM): 996 s
CT (clotting time) (whole blood [2]; rTM 30 nM+APC inhibitory aptamer 1 μM): 474 s
anticoagulation ability of the soluble thrombomodulin (whole blood [2]; addition of ARIXTRA 0.5 μg/mL, rTM 30 nM): markedly enhanced

Unfractionated heparin
prolongation of blood coagulation by addition of rTM (whole blood [1]; [3]): markedly prolonged
CFT (clot formation time) (whole blood [1]; [20]): 98 s
CT (clotting time) (whole blood [1]; [20]): 53 s
CFT (clot formation time) (whole blood [1]; [21]): 93 s
CT (clotting time) (whole blood [1]; [21]): 66 s
CFT (clot formation time) (whole blood [1]; [22]): 82.0 s
CT (clotting time) (whole blood [1]; [22]): 73 s
CFT (clot formation time) (whole blood [1]; [23]): 102 s
CT (clotting time) (whole blood [1]; [23]): 89 s
CFT (clot formation time) (whole blood [1]; [24]): 86.0 s
CT (clotting time) (whole blood [1]; [24]): 69 s
CFT (clot formation time) (whole blood [1]; [25]): 161 s
CT (clotting time) (whole blood [1]; [25]): 182 s
